Among the data in PMC5587797 (Nucleic Acids Research, 2017) are Kd values, retold here.

As usually defined, the Kd is a measure of binding affinity in units of concentration. A lower Kd goes with a tighter complex.

The target of test [1] is hTRMT10A (Homo sapiens, UniProt Q8TBZ6). Kind of test: biochemical.
Test [2] addresses hTRMT10A (Homo sapiens, UniProt Q8TBZ6, D210N). Kind of test: biochemical.

hTRMT10A (Homo sapiens, UniProt Q8TBZ6, D210N), sequence (Q8TBZ6 whole entry D210N): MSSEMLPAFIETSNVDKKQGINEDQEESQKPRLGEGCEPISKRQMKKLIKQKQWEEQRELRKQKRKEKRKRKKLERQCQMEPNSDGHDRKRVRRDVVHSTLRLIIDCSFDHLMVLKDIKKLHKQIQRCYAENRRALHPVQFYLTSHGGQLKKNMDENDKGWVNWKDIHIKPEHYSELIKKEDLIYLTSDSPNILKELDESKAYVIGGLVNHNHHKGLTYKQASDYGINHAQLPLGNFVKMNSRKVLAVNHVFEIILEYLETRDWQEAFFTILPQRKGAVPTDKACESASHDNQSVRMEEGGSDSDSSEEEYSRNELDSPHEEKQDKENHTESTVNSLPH
hTRMT10A (Homo sapiens, UniProt Q8TBZ6), sequence (Q8TBZ6 whole entry): as the sequence (Q8TBZ6 whole entry D210N) above, with N210D counted along it

Consider `C[S+](CC[C@H](N)C(=O)O)C[C@H]1O[C@@H](n2cnc3c(N)ncnc32)[C@H](O)[C@@H]1O` (some centres unmarked) [S-adenosyl methionine], for which the results for the Kd at hTRMT10A [1] and on hTRMT10A [2] were 17.7 ± 4 µM and 60.6 ± 10.3 µM, respectively.
